Reference: paper PMC3826149, “Red Algal Bromophenols as Glucose 6-Phosphate Dehydrogenase Inhibitors” (Marine Drugs, 2013)

Key:
[1] = target: T1, glucose 6-phosphate dehydrogenase (G6PD) (Leuconostoc mesenteroides, UniProt P11411); assay: G6PD enzyme inhibition assay (colorimetric, WST-1/1-methoxy PMS); format: biochemical; conditions: for IC50: Mean ± SD (n = 3), glucose 6-phosphate 3.0 mM, NADP+ 0.3 mM, read-out: IC50 on glucose 6-phosphate dehydrogenase (G6PD) reaction; for G6PD inhibition in words: qualitative statement
T1 construct: purchased Sigma-Aldrich (St. Louis, MO, USA)
T1 sequence (P11411 1-486): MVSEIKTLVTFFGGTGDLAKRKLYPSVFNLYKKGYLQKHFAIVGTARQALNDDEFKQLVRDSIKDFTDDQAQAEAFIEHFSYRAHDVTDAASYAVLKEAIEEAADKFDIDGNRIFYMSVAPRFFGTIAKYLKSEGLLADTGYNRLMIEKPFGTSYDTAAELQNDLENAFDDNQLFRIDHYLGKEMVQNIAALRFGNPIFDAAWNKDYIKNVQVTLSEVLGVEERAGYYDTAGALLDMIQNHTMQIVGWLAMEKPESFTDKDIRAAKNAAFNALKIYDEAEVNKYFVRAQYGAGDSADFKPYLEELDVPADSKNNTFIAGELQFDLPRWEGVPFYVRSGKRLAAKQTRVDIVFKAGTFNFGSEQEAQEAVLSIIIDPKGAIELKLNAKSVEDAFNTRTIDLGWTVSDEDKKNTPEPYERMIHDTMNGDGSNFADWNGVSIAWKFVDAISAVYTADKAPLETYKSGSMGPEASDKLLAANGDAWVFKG
Source text: G6PD (EC 1.1.1.49) from Leuconostoc mesenteroides was purchased from Sigma-Aldrich (St. Louis, MO, USA). WST-1 and 1-methoxy-5-methylphenazinium methylsulfate (1-methoxy PMS) were purchased from Dojindo Laboratories (Mashiki, Kumamoto, Japan) and oxidized nicotinamide adenine dinucleotide phosphate (NADP^+) from Oriental Yeast Industries (Tokyo, Japan). Glucose 6-phosphate was purchased from Wako Pure Chemicals (Tokyo, Japan). Epigallocatechin gallate (EGCG) was purchased from Cayman Chemical Company (Ann Arbor, MI, USA). Thin layer chromatography (TLC) was carried out using a glass plate precoated with silica gel 60 F254 and RP-18 (Merck, Darmstadt, Germany), and spots were detected under UV light and visualized by spraying 50% sulfuric acid and potassium ferricyanide-ferric chloride reagents. NMR spectra were recorded in acetone-d6 on a Bruker AMX-500 (Karlsruhe, Germany) spectrometer at 500 MHz for proton and 125 MHz for carbon chemical shifts. Field desorption-MS spectra were recorded on a JEOL JMS-T100GCV spectrometer (Tokyo, Japan).
Enzyme assay was carried out by colorimetric method as described in literature with slight modification. The reaction mixture was prepared by adding 135 mM Tris-HCl buffer (pH 7.8, 675 μL), 30 mM glucose 6-phosphate (100 μL), 3 mM NADP^+ (100 μL), 20 mM MgCl2 (100 μL) and test materials in MeOH (15 μL). Reaction was initiated by adding 0.035 U/mL G6PD solution (10 μL) to the reaction mixture. Each reaction was carried out at 25 °C for 15 min and terminated by adding 1 mL of saturated aqueous NaCl solution. For determination of produced NADPH, 0.05 mM WST-1 (400 μL) and 0.025 mM 1-methoxy PMS (400 μL) were mixed to the reaction mixture (400 μL) and the absorbance was measured at 438 nm. EGCG was used as a positive control.

purified α-glucosidase = target: purified α-glucosidase; parameters: method as in PMID 20629879; conditions: previous study; cited from earlier work
[2] = read-out: Inhibition (%) of G6PD

Work on `O=Cc1cc(Br)c(O)c(Br)c1` [Compound 1] yielded an IC50 [1] of 76.6 ± 1.1 µM.
With `COCc1cc(O)c(O)c(Br)c1` [Compound 3] the IC50 [1] was > 340 µM, the “G6PD inhibition in words” value [1] was “low inhibition” and the inhibition at 340 µM [1, 2] was 35.7%.
For `Oc1cc(COCc2cc(O)c(O)c(Br)c2Br)c(Br)c(Br)c1O` [Compound 5], the “fold lower IC50 value than epigallocatechin gallate (EGCG)” value ([1]; G6PD IC50 relative to known inhibitor EGCG) is given as 9.1 fold, the IC50 [1] is given as 0.85 ± 0.1 µM and the IC50 (purified α-glucosidase) is given as 1000 to 1200 µM.
In the case of `OCc1cc(O)c(O)c(Br)c1Cc1cc(O)c(O)c(Br)c1Br` [Compound 4], the IC50 [1] is reported as 4.01 ± 0.3 µM.
For `OCc1cc(O)c(O)c(Br)c1` [Compound 2], the IC50 [1] was > 370 µM, the “G6PD inhibition in words” value [1] was “low inhibition” and the inhibition at 370 µM [1, 2] was 37.6%.
`O=C(O[C@@H]1Cc2c(O)cc(O)cc2O[C@@H]1c1cc(O)c(O)c(O)c1)c1cc(O)c(O)c(O)c1` [Epigallocatechin gallate, reference compound] showed an IC50 [1] of 7.7 ± 0.14 µM.
